Source: article PMC2138933 (The Journal of Experimental Medicine, 1971)

Tests used:
[1] = tested on: purified guinea pig anti-a,DNP-Lys7-10 antibody; settings: as measured by binding of DNP-OH or DNP-EACA; fluorescence quenching
[2] = tested on: purified anti-8,e,DNP-Lys8 antibody; type: binding, guinea pig; settings: cross-reaction of anti-8,ε,DNP-Lys8 antibody with α,DNP-oligolysines

| SMILES | contribution of the haptenic group to the total binding energy of a,DNP-Lys9 [1] | contribution to the binding energy of α,DNP-oligolysines [2] |
| --- | --- | --- |
| O=C(O)CCCCCNc1ccc([N+](=O)[O-])cc1[N+](=O)[O-] [DNP-EACA] | about 70% |  |
| O=[N+]([O-])c1ccc(O)c([N+](=O)[O-])c1 [DNP-OH, 2,4,dinitrophenol] | about 70% | 93% |
